According to patent publication US10238658B2, “1-pyrazolyl-3-(4-((2-anilinopyrimidin-4-yl) oxy) napththalen-1-yl) ureas as p38 MAP kinase inhibitors” (Respivert Limited, priority 2011, dated 2019):

Assays:
MIP1α = experiment: LPS-stimulated MIP1α production in sputum macrophages from COPD; format: cell-based; settings: Homo sapiens, Macrophage
Protocol: Patients with COPD were inhaled with a nebulised solution of 3% (w/v) hypertonic saline using an ultrasonic nebuliser (Devilbiss, Carthage, Mo.) with tidal breathing for 5 min. This procedure was repeated a maximum of three times until enough sputum was obtained. The sputum samples were homogenized and mixed vigorously using a vortex mixer in 0.02% v/v dithiothreitol (DTT) solution. The samples were re-suspended in PBS (40 mL) followed by centrifugation at 1500 rpm at 4° C. for 10 min to obtain sputum cell pellets. The pellets were washed twice with PBS (40 mL). The sputum cells were then re-suspended in macrophage serum-free medium (macrophage-SFM, Life technologies, Paisley, UK; to achieve 2×10^6/well in a 24 well plate) containing 20 U/mL penicillin, 0.02 mg/mL streptomycin and 5 μg/mL amphotericin B and seeded on high bound 96-well plate, followed by incubation for 2 hr at 37° C. and at 5% CO2 to allow the macrophages to attach to the bottom of the plate. The cells on the plate were washed with fresh macrophage-SFM (200 μL/well) to remove neutrophils and other contaminated cells. The adherent cells (mainly sputum macrophages) on the plate were used for further analysis. Sputum induction and isolation were conducted in Quintiles Drug Research Unit at Guys Hospital and ethics approval and written informed consent was obtained by Quintiles.
Where appropriate, 1 μL of a solution containing either the test compound or reference article at the stated concentrations or alternatively 1 μL of DMSO as the vehicle control was added to each well (200 μL in media) and the cells were incubated for 2 hr. […] After washing with 200 uL wash buffer per well, the beads were resuspended in sheath fluid (150 μL) and analyzed immediately. The level of each analyte in the supernatant was calculated using Xcel Fit software with a 4 or 5-parameter equation using each standard curve. The inhibitions of each cytokine production were calculated at each concentration by comparison with vehicle control. The IC50 values were determined from concentration-inhibition curves using XL-Fit (idbs, Guildford, UK)

IL-6 = experiment: TNFα-stimulated IL-6 production in primary bronchial epithelial cells from COPD; format: cell-based; settings: Homo sapiens, Epithelial cell
Protocol: Primary airway epithelial cells obtained from patients with COPD were purchased from Asterand (Royston, UK), and maintained in bronchial epithelial cell growth media that was prepared by mixing together LHC8 (lnvitrogen) (500 mL), with LHC9 (Invitrogen) (500 mL) and 3 μL of retinoic acid solution (5 mg/mL in neat DMSO. The media was removed by aspiration and fresh BEGM (200 μL) was added to each well. Where appropriate, 1 μL of a solution of the test compound at the state concentrations or 1 μL of DMSO as the vehicle control was added and the cells were incubated for 2 hr. The cells were stimulated with TNFα (50 μL; final concentration 50 ng/mL) and then incubated for 4 hr at 37° C. and 5% CO2. The supernatant was then collected and kept at −20° C.
The levels of IL-6 and IL-8 were determined by ELISA using R&D Systems' Human IL-6 and IL-8 Duoset® Elisa Kits. The inhibition of IL-6 and IL-8 production was calculated at each concentration by comparison with vehicle control.

Balb/c mice = experiment: LPS-induced neutrophil accumulation in mice; format: in vivo, mouse
Protocol: […] At T=0, mice were placed into an exposure chamber and exposed to LPS (7.0 mL, 0.5 mg/mL solution in PBS) for 30 min). After a further 8 hr the animals were anesthetized, their tracheas cannulated and BALF extracted by infusing and then withdrawing from their lungs 1.0 mL of PBS via the tracheal catheter. Total and differential white cell counts in the BALF samples were measured using a Neubaur haemocytometer. Cytospin smears of the BALF samples were prepared by centrifugation at 200 rpm for 5 min at RT and stained using a DiffQuik stain system (Dade Behring). Cells were counted using oil immersion microscopy. Data for neutrophil numbers in BAL are shown as mean ±S.E.M. (standard error of the mean). The percentage inhibition of neutrophil accumulation was calculated for each treatment relative to vehicle treatment,

CXCL1 (KC) = experiment: Cigarette smoke model: CXCL1 (KC) in BALF; format: in vivo, mouse; settings: mice
Protocol: A/J mice (males, 5 weeks old) were exposed to cigarette smoke (4% cigarette smoke, diluted with air) for 30 min/day for 11 days using a Tobacco Smoke Inhalation Experiment System for small animals (Model SIS-CS; Sibata Scientific Technology, Tokyo, Japan). Test substances were administered intra-nasally (35 μL of solution in 50% DMSO/PBS) once daily for 3 days after the final cigarette smoke exposure. At 12 hr after the last dosing, each of the animals was anesthetized, the trachea cannulated and bronchoalveolar lavage fluid (BALF) was collected. The numbers of alveolar macrophages and neutrophils were determined by FACS analysis (EPICS® ALTRA II, Beckman Coulter, Inc., Fullerton, Calif., USA) using anti-mouse MOMA2 antibody (macrophage) or anti-mouse 7/4 antibody (neutrophil). BALF was centrifuged and the supernatant was collected. The level of keratinocyte chemoattractant (KC; CXCL1) in BALF was quantitated using a Quentikine® mouse KC ELISA kit (R&D systems, Inc., Minneapolis, Minn., USA).

Cc1ccc(-n2nc(C(C)(C)C)cc2NC(=O)Nc2ccc(Oc3ccnc(Nc4ccccc4)n3)c3ccccc23)cc1 [Example 1, 1-(3-(tert-Butyl)-1-(p-tolyl)-1H-pyrazol-5-yl)-3-(4-(2-(phenylamino)pyrimidin-4-yloxy)naphthalen-1-yl)urea]
IC50 (MIP1α; COPD patients, LPS): 7.5 nM
Emax at 0.1 µg/mL (MIP1α; read-out: MIP1α E max, sputum macrophage): 89%
IC50 (IL-6; COPD patients, TNFα stimulated): 1.7 nM
Emax at 0.1 µg/mL (IL-6; read-out: IL-6 E max, bronchial epithelial cell): 100%
% inhibition of neutrophil numbers in BALF (Balb/c mice; 0.05 mg/mL intra tracheal, pre-dose 2 hr): 18%
% inhibition of neutrophil numbers in BALF (Balb/c mice; 0.2 mg/mL intra tracheal, pre-dose 2 hr): 48%
% inhibition of neutrophil numbers in BALF (Balb/c mice; 1.0 mg/mL intra tracheal, pre-dose 2 hr): 77%
% inhibition of neutrophil numbers in BALF (Balb/c mice; 1.0 mg/mL intra tracheal, pre-dose 8 hr): 48%
% inhibition of neutrophil numbers in BALF (Balb/c mice; 1.0 mg/mL intra tracheal, pre-dose 12 hr): 4%
LPS-induced neutrophil accumulation, effect in words (Balb/c mice; mice): dose dependent inhibition
cigarette smoke induced CXCL1 (KC) production in BALF, effect in words (CXCL1 (KC)): inhibited
